Measured values reported in patent publication US5373089A, “Oxytocin antagonist” (Northwestern University, priority 1993, dated 1994).
Starred links: 1 amine or outer side, 2 acyl side, 3 side chain; linkers in the order of their positions; H or OH if unused. Positions of bridges follow the written chain, without caps; N, C: chain ends. Non-standard residues stand in square brackets, D forms with d. Residues, ends and D or L forms follow the SMILES beside them. X1 = O=C(CC1(S[*:2])CCCCC1)[*:1]

What was measured:
ADH = ADH bioassay (alteration in urine output due to ADH); type: in vivo; conditions: for ADH Bioassay pA2: in vivo
Description: The above compound was also tested for antagonism to vasopressin. Anti-ADH activity can be determined by measuring the alteration in urine output due to ADH in the presence and absence of the antagonist. A suitable ADH-assay is described in Sawyer, et al., Endocrinology, 63:694 (1958). […] The ratio of oxytocin antagonism to ADH antagonism was very high, viz. over 1, 866, as compared with 200 for the compositions disclosed in the parent applications.
The anti-ADH activity is measured by the alteration in urine […] in the presence and absence of the antagonist to determine the specificity of the antagonist. The anti-ADH assay is described in Sawyer, et al., Endocrinology, 63:694 (1958).

HUMAN OXYTOCIN RECEPTOR = target: T1, HUMAN OXYTOCIN RECEPTOR (Homo sapiens, UniProt P30559); assay: Oxytocin receptor assay, human myometrial tissue membranes, 3H-OT competition; type: binding
T1 construct: Oxytocin receptors (OTrs) reside on the cell membrane and are present at high concentrations at the end of pregnancy in uterine tissue; from tissue; host or cells: human myometrium from cesarean section patients, sucrose-gradient membrane fraction
T1 sequence (P30559 1-389): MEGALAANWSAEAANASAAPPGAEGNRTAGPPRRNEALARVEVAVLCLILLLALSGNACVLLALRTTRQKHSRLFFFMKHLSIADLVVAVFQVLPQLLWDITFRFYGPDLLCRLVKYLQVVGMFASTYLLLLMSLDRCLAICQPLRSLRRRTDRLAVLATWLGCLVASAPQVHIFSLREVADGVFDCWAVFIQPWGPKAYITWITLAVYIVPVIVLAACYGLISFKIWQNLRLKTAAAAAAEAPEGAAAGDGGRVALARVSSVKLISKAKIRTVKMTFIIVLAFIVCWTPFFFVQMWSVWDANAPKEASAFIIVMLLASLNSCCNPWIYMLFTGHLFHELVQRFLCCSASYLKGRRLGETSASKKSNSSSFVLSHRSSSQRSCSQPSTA
Description: Human myometrial tissue was collected from patients at the time of cesarian section after informed consent. The tissue was rinsed in cold buffer, cut into small pieces and frozen at -70° C. until homogenization.
Oxytocin receptors (OTrs) reside on the cell membrane and are present at high concentrations at the end of pregnancy in uterine tissue. Frozen tissue is homogenized in Tris buffer, the homogenate filtered, and the filtrate centrifuged at 1000 g for 15 minutes at 4° C. The supernatant is centrifuged at 40,000 g for 30 minutes and the pellet containing the cell membranes resuspended in 10% sucrose. Density gradient ultracentrifugation is then performed by placing the 10 % sucrose suspension on top of 35% sucrose and centrifuging for 30 minutes in a swing bucket rotor at 105,000 g. The membranes at the interface of the 10%/35% sucrose are removed and resuspended in Tris buffer containing EDTA for 30 minutes. This procedure removes divalent cation and results in dissociation of any endogenously bound OT to the receptor. This mixture is then centrifuged for 15 minutes at 100,000 g and the pellet containing the membrane OTrs resuspended in Tris, PMSF, Mg^++, buffer by sonication.
The binding assay consist of 0.1 ml of 20,000 cmp of tritium labeled OT (New England Nuclear, […]), 0.1 ml of OT antagonist added at increasing concentration, 0.25 ml of buffer and 0.05 ml of membrane (70-150 ug protein). A nonspecific tube has 100× of cold OTA added to it. The incubation is for 30 minutes at 30 ° C. The membrane is pelleted by centrifugation in ultraclear mini tubes (5×41 mm) for 30 minutes at 105,000 g. The resulting pellet containing the bound ^3 H-OT is dissolved in 0.1N NaOH at 45 ° C. for 30 minutes and this mixture is then placed in liquid scintillation counting fluid and counted for dpms in a scintillation counter.
The data is analyzed by nonlinear curve fitting methods using McPherson's EBDA (J Pharmacol Methods 14:213-228, 1985) and Munson and Rodbard's LIGAND (Anal Biochem 107:220-239, 1980) program for saturation and competition analysis for determining Kds and Kis.

pregnant baboon = assay: Oxytocin challenge test in tethered pregnant baboon (antagonists-response interval); type: in vivo; conditions: for ARI (OTA/ANTI): ratio to ANTAG I
Description: The baboon is an excellent animal model because of its physiologic and anatomic similarity to humans (see articles by our laboratory: Am J Obstet Gynecol. 163:1815-1882, 1990; Am J Obstet Gynecol 165:456-560, 1991; Am J Obstet Gynecol 165:1487-1498, 1991; articles by other laboratories: Endocrine Reviews 11:124-150, 1990; 11:151-176, 1990). Pregnant tethered baboons were studied between 130 to 145 days of pregnancy Delivery=day 184). The oxytocin antagonists were administered as a single bolus injection of 1 mg intra-arterially followed 1 minute later by the infusion of oxytocin. […] This oxytocin antagonist was not produced in our laboratory and is not an oxytocin analog.

Row | Molecule | ADH Bioassay pA2 (ADH) | Kd (HUMAN OXYTOCIN RECEPTOR) [nM] | activity as a vasopressin antagonist (ADH; result in words) | ARI (antagonists-response interval) (pregnant baboon; 1 mg single bolus intra-arterially, then oxytocin infusion, pregnant baboon day 130-145) | time for which the response to oxytocin was blocked (pregnant baboon; one mg, pregnant baboon) | ARI (OTA/ANTI) (pregnant baboon) | ARI (OTA/ANTI) (pregnant baboon; listed as ANTAG III) | ARI (OTA/ANTI) (pregnant baboon; listed as compound D)
1 | CC[C@H](C)[C@@H]1NC(=O)[C@H](Cc2ccccc2)NC(=O)[C@@H](Cc2c[nH]c3ccccc23)NC(=O)CC2(CCCCC2)SSC[C@@H](C(=O)N2CCC[C@H]2C(=O)N[C@@H](CCCNC(=N)N)C(=O)NCC(N)=O)NC(=O)[C@H](CC(N)=O)NC1=O [Compound B, [Pmp^1,D-Trp^2,Phe^3,Ile^4,Arg^8] oxytocin] ([dW]FINCPRG-NH2; linker N-5 via X1) | 7.40 | 19.6 |  |  |  |  |  | 
2 | [(S)Pmp^1,D-Trp^2,Pen^6,Arg^8 ] oxytocin [Compound D] | < 5.75 |  | very low activity | 7856 | greater than 24 hours | 133 | 133 | about 130
